Laboratory results: PubChem BioAssay (NCI)
Values joined by “and” are separate entries in the source; they are usually repeats but may differ in a detail not shown here. Equal entries are not always repeated.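 Briefly, cells in 96-well plates were exposed to five compound concentrations for 48 h, and endpoints were estimated by linear interpolation. GI50 is the concentration that inhibits growth by half. TGI: total growth inhibition.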

Experiments:
Assay in all cases: growth of human tumour cells (NCI), 48 h
KM12 colon = system: KM12 colon
SN12C renal = system: SN12C renal
NCI-H23 lung = system: NCI-H23 lung
SK-OV-3 ovarian = system: SK-OV-3 ovarian
HCC-2998 colon = system: HCC-2998 colon
COLO 205 colon = system: COLO 205 colon
NCI-H522 lung = system: NCI-H522 lung
SF-539 CNS = system: SF-539 CNS
U251 CNS = system: U251 CNS
HOP-92 NSCLC = system: HOP-92 NSCLC

SMILES | GI50 (KM12 colon) | TGI (KM12 colon) | GI50 (SN12C renal) | TGI (SN12C renal) | GI50 (NCI-H23 lung) | TGI (NCI-H23 lung) | GI50 (SK-OV-3 ovarian) | TGI (SK-OV-3 ovarian) | GI50 (HCC-2998 colon) | TGI (HCC-2998 colon) | GI50 (COLO 205 colon) | TGI (COLO 205 colon) | GI50 (NCI-H522 lung) | TGI (NCI-H522 lung) | GI50 (SF-539 CNS) | TGI (SF-539 CNS) | GI50 (U251 CNS) | TGI (U251 CNS) | GI50 (HOP-92 NSCLC) | TGI (HOP-92 NSCLC) [µM]
N=C(N)c1ccc2nc(-c3cc(CC(=O)N[C@@H](CC(=O)O)C(=O)O)cc(-c4cc(S(N)(=O)=O)ccc4O)c3O)[nH]c2c1 | > 100 µM | > 100 µM | > 100 µM | > 100 µM | > 100 µM | > 100 µM | > 100 µM | > 100 µM | > 100 µM | > 100 µM | > 100 µM | > 100 µM | > 100 µM | > 100 µM | > 100 µM | > 100 µM | > 100 µM | > 100 µM | > 100 µM | > 100
Cn1cc(C2=C(c3cccc(Br)c3)C(=O)NC2=O)c2ccccc21 | 8.43 µM | > 25 µM | 13.2 µM | > 25 µM | 12.5 µM | > 25 µM | 10.3 µM | > 25 µM | > 16 µM | > 25 µM | 13.9 µM | > 25 µM | 10.4 µM | > 25 µM | 12.5 µM | > 25 µM | 12.3 µM | > 25 µM | 8.62 µM | > 25
CC(C)(S)C(N)C(=O)O (stereo not given) | 1470 µM | 4710 µM and > 100 µM | > 5000 µM | > 5000 µM | 1510 µM | > 5000 µM | 2600 µM | > 5000 µM | 1450 µM | 4340 µM | 1180 µM | 2880 µM and > 100 µM | 4600 µM | > 5000 µM | 1420 µM | 4370 µM and > 100 µM | 1780 µM | > 5000 µM | 2960 µM | > 5000
CCOC(=O)c1c(NC(=O)c2cccc(C(F)(F)F)c2)sc2c(CN(C)C)c(O)ccc12 | 4.92 µM | 17.9 µM | 7.68 µM | 20.4 µM | 13.1 µM | 32.1 µM | 19.1 µM | 41.8 µM | 1.77 µM | 3.77 µM | 2.1 µM | 4.66 µM | 5.03 µM | 28 µM | 3.41 µM | 12.4 µM | 2.21 µM | 5.45 µM | 2.76 µM | 15.2
C#COc1cccc(Nc2c(C#N)cnc3ncc(NC(=O)CCl)cc23)c1 | 56.7 µM | > 62.5 µM | 16.2 µM | > 62.5 µM | > 62.5 µM | > 62.5 µM | > 62.5 µM | > 62.5 µM | > 62.5 µM | > 62.5 µM | 40.1 µM | > 62.5 µM | 9.77 µM | 21.4 µM | 13.9 µM | 37.6 µM | 12.5 µM | 53.6 µM | > 62.5 µM | > 62.5
COc1cc(OC)c(/C=C/c2c3ccccc3cc[n+]2C)c(OC)c1 | 0.673 µM | 6.85 µM | 2.31 µM | 18.6 µM | 1.29 µM | 25.8 µM | 3.58 µM | > 100 µM | 1.65 µM | 14.7 µM | 0.774 µM | 2.95 µM | 1.52 µM | 6.49 µM | 2.1 µM | 9.17 µM | 1.1 µM | 14.1 µM | 1.8 µM | 12.4
CC[C@H]1CN2CCc3cc(OC)c(OC)cc3[C@@H]2C[C@@H]1C[C@H]1NCCc2c1[nH]c1ccc(O)cc21 | 0.0507 µM and 0.0994 µM | 0.283 µM and 1.37 µM and 0.519 µM | 0.0228 µM and 0.0349 µM | 0.0741 µM and 0.136 µM and 0.19 µM | 0.0177 µM and 0.0303 µM | 0.0472 µM and 0.112 µM and 0.0706 µM | 0.0348 µM and 0.0711 µM | 0.142 µM and 0.431 µM and 0.529 µM | 0.0229 µM and 0.0287 µM | 0.0568 µM and 0.0856 µM and 0.0758 µM | 0.019 µM and 0.0187 µM | 0.0339 µM and 0.0347 µM and < 0.0117 µM | 0.00347 µM and 0.00354 µM | 0.0164 µM and 0.0108 µM | 0.0211 µM and 0.0232 µM | 0.0476 µM and 0.0513 µM and 0.0408 µM | 0.0222 µM and 0.0255 µM | 0.0702 µM and 0.075 µM and 0.154 µM | 0.0183 µM and 0.0337 µM | –
C1=C\COCc2cc(ccc2OCCN2CCCC2)Nc2nccc(n2)-c2cccc(c2)COC/1 | 0.348 µM | 3.74 µM | 1.19 µM | 4.92 µM | 2.09 µM | 5.79 µM | 3.62 µM | 6.19 µM | 2.3 µM | 5.37 µM | 1.35 µM | 4.29 µM | 3.08 µM | 5.23 µM | 3.11 µM | 5.71 µM | 2.49 µM | 5.21 µM | 1.34 µM | 4.86
CNS(=O)(=O)NNS(=O)(=O)c1ccc(Br)cc1 | – | – | – | – | – | > 100 µM | – | > 100 µM | – | > 100 µM | – | > 100 µM | – | > 100 µM | – | > 100 µM | – | > 100 µM | – | > 100
N#CC(C(=O)C(=O)Nc1ccc(Cl)cc1)c1ccccc1 (stereo not given) | – | > 100 µM | – | > 100 µM | – | > 100 µM | – | > 100 µM | – | > 100 µM | – | > 100 µM | – | – | – | > 100 µM | – | > 100 µM | – | > 100
COC(=O)[C@@H](C)C[C@H](Cc1ccccc1)NC(=O)c1csc([C@@H](C[C@H](C(C)C)N(C)C(=O)[C@@H](NC(=O)[C@H]2CCCCN2C)C2CCCCC2)OC(C)=O)n1 | 0.000296 µM and 0.0025 µM | > 25 µM | 0.0041 µM and 0.0025 µM | 8.9 µM | 0.00079 µM and 0.0025 µM | > 25 µM | 0.000567 µM and 0.0025 µM | > 25 µM | 0.000455 µM and 0.0025 µM | > 25 µM | 0.000301 µM and < 0.0025 µM | 0.0026 µM and < 0.0025 µM | – | – | 0.00211 µM and 0.0025 µM | 0.00619 µM and 0.00859 µM | 0.000533 µM and 0.0025 µM | > 25 µM | 0.000977 µM and 0.0025 µM | 0.0112
C/C(CC(=O)Nc1cccc(Cl)c1C)=N\NC(=O)c1ccncc1 | – | > 100 µM | – | – | – | > 100 µM | – | > 100 µM | – | > 100 µM | – | > 100 µM | – | 55 µM | – | > 100 µM | – | > 100 µM | – | > 100
O=C(Nc1ccc(F)cc1)c1cc(S(=O)(=O)Nc2nc3ccccc3o2)c(SCc2ccccc2)cc1Cl | 17.5 µM | 33.9 µM | 16.4 µM | 31.6 µM | 19.5 µM | 36.9 µM | 22.1 µM | 53.1 µM | 18.4 µM | 32.6 µM | 46.2 µM | > 100 µM | – | – | 17.1 µM | 31.2 µM | 17.3 µM | 31.7 µM | 18.5 µM | 42.4
Cc1cccc(C)c1NC(=O)C(=O)C(C(=O)c1ccccc1-c1ccccc1)C1OC(=O)c2ccccc21 (stereo not given) | – | 48.9 µM | – | – | – | 30 µM | – | 87.6 µM | – | 29.7 µM | – | 37.9 µM | – | 24.9 µM | – | 28.3 µM | – | 30.7 µM | – | 40
